Measurements taken from ChEMBL document CHEMBL5634161, “Discovery of benzamide-based PI3K/HDAC dual inhibitors with marked pro-apoptosis activity in lymphoma cells” (Eur J Med Chem, 2023).
Calls of active or inactive are those of the source. The calls are words filed in the database; no cut-off is given here.

What was measured:
CYP1A2 = CYP1A2 (Homo sapiens, UniProt P05177); assay: Inhibition of CYP1A2 in human liver microsomes using phenacetin as substrate at 10 uM in presence of NADPH regenerating system by LC-MS/MS analysis relative to control; type: ADME, Microsome; details: probe phenacetin
CYP2C19 = CYP2C19 (Homo sapiens, UniProt P33261); assay: Inhibition of CYP2C19 in human liver microsomes using S-mephenytoin as substrate at 10 uM in presence of NADPH regenerating system by LC-MS/MS analysis relative to control; type: ADME, Microsome; details: probe S-mephenytoin
Histone deacetylase 1 = Histone deacetylase 1 (Homo sapiens, UniProt Q13547); assay: Inhibition of HDAC1 (unknown origin) using Boc-Lys(acetyl)-AMC as substrate preincubated for 1 hrs followed by substrate addition and measured after 2 hrs by spectrophotometer based fluorometric assay
Histone deacetylase 2 = Histone deacetylase 2 (Homo sapiens, UniProt Q92769); assay: Inhibition of HDAC2 (unknown origin) using Boc-Lys(acetyl)-AMC as substrate preincubated for 1 hrs followed by substrate addition and measured after 2 hrs by spectrophotometer based fluorometric assay
Histone deacetylase 3 = Histone deacetylase 3 (Homo sapiens, UniProt O15379); assay: Inhibition of HDAC3 (unknown origin) using Boc-Lys(acetyl)-AMC as substrate preincubated for 1 hrs followed by substrate addition and measured after 2 hrs by spectrophotometer based fluorometric assay
Histone deacetylase 5 = Histone deacetylase 5 (Homo sapiens, UniProt Q9UQL6); assay: Inhibition of HDAC5 (unknown origin) using Boc-Lys(acetyl)-AMC as substrate preincubated for 1 hrs followed by substrate addition and measured after 2 hrs by spectrophotometer based fluorometric assay
[1] = target: Protein deacetylase HDAC6 (Homo sapiens, UniProt Q9UBN7); assay: Inhibition of HDAC6 (unknown origin) using Boc-Lys(acetyl)-AMC as substrate preincubated for 1 hrs followed by substrate addition and measured after 2 hrs by spectrophotometer based fluorometric assay
Histone deacetylase 8 = Histone deacetylase 8 (Homo sapiens, UniProt Q9BY41); assay: Inhibition of HDAC8 (unknown origin) using Boc-Lys(acetyl)-AMC as substrate preincubated for 1 hrs followed by substrate addition and measured after 2 hrs by spectrophotometer based fluorometric assay
[2] = target: Polyamine deacetylase HDAC10 (Homo sapiens, UniProt Q969S8); assay: Inhibition of HDAC10 (unknown origin) using Boc-Lys(acetyl)-AMC as substrate preincubated for 1 hrs followed by substrate addition and measured after 2 hrs by spectrophotometer based fluorometric assay
Histone deacetylase 11 = Histone deacetylase 11 (Homo sapiens, UniProt Q96DB2); assay: Inhibition of HDAC11 (unknown origin) using Boc-Lys(acetyl)-AMC as substrate preincubated for 1 hrs followed by substrate addition and measured after 2 hrs by spectrophotometer based fluorometric assay
[3] = target: Phosphatidylinositol 4,5-bisphosphate 3-kinase catalytic subunit gamma isoform (Homo sapiens, UniProt P48736); assay: Inhibition of PI3Kgamma (unknown origin) using PIP2 as substrate incubated for 1 hrs in presence of ATP by ADP-Glo kinase assay
MM1.S = assay: Antiproliferative activity against human MM1.S cells incubated for 48 hrs by resazurin dye based fluorescence micro plate reader analysis; type: functional, cell-based
MDA-MB-231 = assay: Antiproliferative activity against human MDA-MB-231 cells incubated for 48 hrs by resazurin dye based fluorescence micro plate reader analysis; type: functional, cell-based; details: MDA-MB-231, 48 h
[4] = Cytotoxicity against human HL7702 cells incubated for 48 hrs by resazurin dye based fluorescence micro plate reader analysis; type: toxicity, cell-based; details: HL7702 (L02) cells
JeKo-1 [5] = assay: Potency index, ratio of 4-(3-(4-(4-methoxy-6-morpholino-1,3,5-triazin-2-yl)phenyl)urea)-N-(2-ethylamino)ethylbenzamide IC50 to test compound IC50 for antiproliferative activity against human JeKo-1 cells incubated for 48 hrs by resazurin based fluorescence microplate reader analysis; type: functional
CYP2C9 = CYP2C9 (Homo sapiens, UniProt P11712); assay: Inhibition of CYP2C9 in human liver microsomes using diclofenac as substrate at 10 uM in presence of NADPH regenerating system by LC-MS/MS analysis relative to control; type: ADME, Microsome; details: probe diclofenac
CYP2D6 = CYP2D6 (Homo sapiens, UniProt P10635); assay: Inhibition of CYP2D6 in human liver microsomes using bufuralol as substrate at 10 uM in presence of NADPH regenerating system by LC-MS/MS analysis relative to control; type: ADME, Microsome; details: probe bufuralol
[6] = Stability in human liver microsomes assessed as compound remaining at […] preincubated for 5 mins followed by NADPH addition and measured immediately by LC-MS/MS analysis; type: ADME, Microsome; details: read-out: Stability
[7] = Stability in human liver microsomes assessed as compound remaining at […] preincubated for 5 mins followed by NADPH addition and measured after 30 mins by LC-MS/MS analysis; type: ADME, Microsome; details: time 35 min, read-out: Stability
[8] = Stability in rat liver microsomes assessed as compound remaining at […] preincubated for 5 mins followed by NADPH addition and measured after 30 mins by LC-MS/MS analysis; type: ADME, Microsome; details: time 35 min, read-out: Stability
[9] = Stability in rat liver microsomes assessed as compound remaining at 0.5 mM preincubated for 5 mins followed by NADPH addition and measured after 45 mins by LC-MS/MS analysis; type: ADME, Microsome; details: time 50 min, read-out: Stability
[10] = Stability in mouse liver microsomes assessed as compound remaining at 0.5 mM preincubated for 5 mins followed by NADPH addition and measured immediately by LC-MS/MS analysis; type: ADME, Microsome; details: read-out: Stability
[11] = Stability in mouse liver microsomes assessed as compound remaining at […] preincubated for 5 mins followed by NADPH addition and measured after 30 mins by LC-MS/MS analysis; type: ADME, Microsome; details: time 35 min, read-out: Stability
[12] = Half-life in ICR mouse at 1 mg/kg, iv measured after 24 hrs by LC-MS/MS analysis; type: ADME, organism-based; details: in vivo
[13] = AUC (0 to t) in ICR mouse at 1 mg/kg, iv measured after 24 hrs by LC-MS/MS analysis; type: ADME, organism-based; details: in vivo
[14] = AUC (0 to infinity) in ICR mouse at 1 mg/kg, iv measured after 24 hrs by LC-MS/MS analysis; type: ADME, organism-based; details: in vivo
[15] = Volume of distribution at steady state in ICR mouse at 1 mg/kg, iv measured after 24 hrs by LC-MS/MS analysis; type: ADME, organism-based; details: in vivo
JeKo-1 [16] = assay: Induction of apoptosis in human JeKo-1 cells assessed as early apoptotic cells at 0.5 uM incubated for 48 hrs by Annexin-V/FITC and PI staining based flow cytometric analysis (reference value: […]); type: functional
JeKo-1 [17] = assay: Induction of apoptosis in human JeKo-1 cells assessed as early apoptotic cells at 1 uM incubated for 48 hrs by Annexin-V/FITC and PI staining based flow cytometric analysis (reference value: […]); type: functional
JeKo-1 [18] = assay: Induction of apoptosis in human JeKo-1 cells assessed as necrotic cells at 1 uM incubated for 48 hrs by Annexin-V/FITC and PI staining based flow cytometric analysis (reference value: 1.05%); type: functional
JeKo-1 [19] = assay: Inhibition of class 1 HDAC in human JeKo-1 cells assessed as increase in histone H3 acetylation incubated for 24 hrs by Western blot analysis; type: cell-based; details: dose 0.25-1 µM
JeKo-1 [20] = assay: Upregulation of tubulin acetylation in human JeKo-1 cells at 0.25 to 1 uM incubated for 24 hrs by Western blot analysis; type: functional, cell-based; details: dose 0.25-1 µM

Chain of Histone deacetylase 5 (Q9UQL6 whole entry): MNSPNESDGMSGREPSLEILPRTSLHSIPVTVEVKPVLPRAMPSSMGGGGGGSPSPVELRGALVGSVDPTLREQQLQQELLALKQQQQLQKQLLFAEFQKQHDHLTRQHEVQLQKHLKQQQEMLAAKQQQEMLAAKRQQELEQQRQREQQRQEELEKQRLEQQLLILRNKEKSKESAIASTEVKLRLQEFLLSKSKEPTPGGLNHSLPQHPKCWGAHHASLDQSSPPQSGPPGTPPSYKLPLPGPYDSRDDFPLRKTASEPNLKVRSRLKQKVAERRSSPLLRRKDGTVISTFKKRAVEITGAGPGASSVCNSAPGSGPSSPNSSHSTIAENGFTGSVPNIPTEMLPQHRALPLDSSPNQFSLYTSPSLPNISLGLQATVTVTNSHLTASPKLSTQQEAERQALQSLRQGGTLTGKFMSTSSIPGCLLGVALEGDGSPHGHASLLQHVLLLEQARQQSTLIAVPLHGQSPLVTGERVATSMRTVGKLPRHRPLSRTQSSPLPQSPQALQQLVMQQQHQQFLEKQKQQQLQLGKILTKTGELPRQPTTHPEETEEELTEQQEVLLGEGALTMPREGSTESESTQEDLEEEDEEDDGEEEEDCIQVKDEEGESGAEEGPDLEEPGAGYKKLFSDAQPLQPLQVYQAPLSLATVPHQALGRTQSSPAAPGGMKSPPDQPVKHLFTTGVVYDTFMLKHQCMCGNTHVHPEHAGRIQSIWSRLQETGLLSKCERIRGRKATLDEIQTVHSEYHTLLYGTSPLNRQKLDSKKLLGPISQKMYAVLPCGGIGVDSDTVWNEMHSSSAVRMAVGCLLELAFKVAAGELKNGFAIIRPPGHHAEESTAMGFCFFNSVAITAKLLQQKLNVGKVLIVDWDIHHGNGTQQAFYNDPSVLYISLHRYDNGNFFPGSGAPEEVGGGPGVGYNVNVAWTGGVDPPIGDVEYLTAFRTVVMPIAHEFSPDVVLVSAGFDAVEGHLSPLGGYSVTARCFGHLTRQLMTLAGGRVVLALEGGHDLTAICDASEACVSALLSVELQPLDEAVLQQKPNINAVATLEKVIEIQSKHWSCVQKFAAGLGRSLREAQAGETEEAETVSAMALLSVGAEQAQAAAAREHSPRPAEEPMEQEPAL
Chain of CYP2C19 (P33261 whole entry): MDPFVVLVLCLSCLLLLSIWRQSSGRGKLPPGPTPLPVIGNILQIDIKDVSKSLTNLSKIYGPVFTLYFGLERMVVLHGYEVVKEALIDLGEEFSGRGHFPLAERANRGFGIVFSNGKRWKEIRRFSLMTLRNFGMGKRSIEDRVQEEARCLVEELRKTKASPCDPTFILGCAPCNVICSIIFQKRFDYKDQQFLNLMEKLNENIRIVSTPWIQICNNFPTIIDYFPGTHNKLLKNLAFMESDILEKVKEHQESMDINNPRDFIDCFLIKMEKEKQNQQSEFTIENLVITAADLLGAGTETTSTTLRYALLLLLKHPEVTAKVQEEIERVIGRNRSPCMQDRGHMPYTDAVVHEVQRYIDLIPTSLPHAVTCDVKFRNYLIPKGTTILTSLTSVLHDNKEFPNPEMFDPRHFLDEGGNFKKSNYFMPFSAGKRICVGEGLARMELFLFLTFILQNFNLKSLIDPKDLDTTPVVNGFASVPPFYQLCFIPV
Chain of Histone deacetylase 3 (O15379 whole entry): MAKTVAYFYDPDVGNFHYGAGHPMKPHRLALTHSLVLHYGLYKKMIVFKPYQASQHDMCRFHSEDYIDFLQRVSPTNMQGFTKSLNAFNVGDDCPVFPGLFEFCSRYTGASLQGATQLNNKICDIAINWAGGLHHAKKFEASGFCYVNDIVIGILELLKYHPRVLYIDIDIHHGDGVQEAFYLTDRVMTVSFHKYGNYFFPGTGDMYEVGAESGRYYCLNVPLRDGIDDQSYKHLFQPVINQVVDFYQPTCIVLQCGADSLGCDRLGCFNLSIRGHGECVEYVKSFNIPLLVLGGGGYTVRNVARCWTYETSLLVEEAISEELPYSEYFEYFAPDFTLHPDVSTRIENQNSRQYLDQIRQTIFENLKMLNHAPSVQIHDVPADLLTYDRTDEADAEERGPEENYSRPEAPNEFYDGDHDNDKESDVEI
Chain of CYP2C9 (P11712 whole entry): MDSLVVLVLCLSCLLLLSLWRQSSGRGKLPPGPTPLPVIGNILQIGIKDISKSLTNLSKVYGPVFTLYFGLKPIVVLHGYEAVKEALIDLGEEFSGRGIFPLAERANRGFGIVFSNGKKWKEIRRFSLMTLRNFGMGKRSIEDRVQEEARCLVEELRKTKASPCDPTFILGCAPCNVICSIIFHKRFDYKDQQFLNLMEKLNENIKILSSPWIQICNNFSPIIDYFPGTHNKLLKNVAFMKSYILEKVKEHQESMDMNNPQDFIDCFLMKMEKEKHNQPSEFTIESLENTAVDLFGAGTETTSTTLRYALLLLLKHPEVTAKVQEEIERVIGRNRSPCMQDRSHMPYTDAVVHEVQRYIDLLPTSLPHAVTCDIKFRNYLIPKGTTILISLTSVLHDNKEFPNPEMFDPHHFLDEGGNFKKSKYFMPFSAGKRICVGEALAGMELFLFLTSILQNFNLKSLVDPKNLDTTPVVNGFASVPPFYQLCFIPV
Chain of Histone deacetylase 8 (Q9BY41 whole entry): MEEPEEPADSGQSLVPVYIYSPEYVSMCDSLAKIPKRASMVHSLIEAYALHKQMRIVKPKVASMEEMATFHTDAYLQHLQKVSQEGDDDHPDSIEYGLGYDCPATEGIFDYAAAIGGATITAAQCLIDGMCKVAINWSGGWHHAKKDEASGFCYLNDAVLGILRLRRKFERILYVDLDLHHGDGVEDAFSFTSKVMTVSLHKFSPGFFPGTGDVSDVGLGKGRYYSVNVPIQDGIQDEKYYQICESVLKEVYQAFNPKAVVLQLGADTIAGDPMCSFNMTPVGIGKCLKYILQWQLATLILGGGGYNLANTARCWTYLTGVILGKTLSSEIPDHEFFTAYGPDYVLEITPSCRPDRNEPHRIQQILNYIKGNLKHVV
Chain of CYP2D6 (P10635 whole entry): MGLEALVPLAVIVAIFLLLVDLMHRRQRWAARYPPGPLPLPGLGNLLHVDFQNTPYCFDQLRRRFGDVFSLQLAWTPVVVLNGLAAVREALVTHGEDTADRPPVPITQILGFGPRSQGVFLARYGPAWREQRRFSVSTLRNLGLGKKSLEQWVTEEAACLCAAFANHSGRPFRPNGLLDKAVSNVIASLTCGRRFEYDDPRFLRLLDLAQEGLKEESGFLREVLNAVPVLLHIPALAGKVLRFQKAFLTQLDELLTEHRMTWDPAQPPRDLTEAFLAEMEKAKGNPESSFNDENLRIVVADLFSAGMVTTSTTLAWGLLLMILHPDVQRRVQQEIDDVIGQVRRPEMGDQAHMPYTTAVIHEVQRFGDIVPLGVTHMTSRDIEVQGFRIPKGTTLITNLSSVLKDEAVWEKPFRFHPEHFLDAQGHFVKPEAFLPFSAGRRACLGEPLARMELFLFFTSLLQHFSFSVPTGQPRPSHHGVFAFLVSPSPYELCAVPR
Chain of Histone deacetylase 1 (Q13547 whole entry): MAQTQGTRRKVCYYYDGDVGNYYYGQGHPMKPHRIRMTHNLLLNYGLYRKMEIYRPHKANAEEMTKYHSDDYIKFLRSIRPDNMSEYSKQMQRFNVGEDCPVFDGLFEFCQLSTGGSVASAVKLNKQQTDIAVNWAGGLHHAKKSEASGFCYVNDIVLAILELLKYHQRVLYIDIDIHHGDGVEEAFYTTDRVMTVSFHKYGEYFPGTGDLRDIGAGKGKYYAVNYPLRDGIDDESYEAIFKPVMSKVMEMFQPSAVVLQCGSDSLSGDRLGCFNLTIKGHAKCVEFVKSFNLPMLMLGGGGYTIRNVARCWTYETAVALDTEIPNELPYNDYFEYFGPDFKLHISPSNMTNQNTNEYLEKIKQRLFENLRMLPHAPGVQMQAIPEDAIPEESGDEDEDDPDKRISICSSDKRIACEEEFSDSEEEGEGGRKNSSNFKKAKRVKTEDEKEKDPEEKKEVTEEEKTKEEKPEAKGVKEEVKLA
Chain of Histone deacetylase 2 (Q92769 whole entry): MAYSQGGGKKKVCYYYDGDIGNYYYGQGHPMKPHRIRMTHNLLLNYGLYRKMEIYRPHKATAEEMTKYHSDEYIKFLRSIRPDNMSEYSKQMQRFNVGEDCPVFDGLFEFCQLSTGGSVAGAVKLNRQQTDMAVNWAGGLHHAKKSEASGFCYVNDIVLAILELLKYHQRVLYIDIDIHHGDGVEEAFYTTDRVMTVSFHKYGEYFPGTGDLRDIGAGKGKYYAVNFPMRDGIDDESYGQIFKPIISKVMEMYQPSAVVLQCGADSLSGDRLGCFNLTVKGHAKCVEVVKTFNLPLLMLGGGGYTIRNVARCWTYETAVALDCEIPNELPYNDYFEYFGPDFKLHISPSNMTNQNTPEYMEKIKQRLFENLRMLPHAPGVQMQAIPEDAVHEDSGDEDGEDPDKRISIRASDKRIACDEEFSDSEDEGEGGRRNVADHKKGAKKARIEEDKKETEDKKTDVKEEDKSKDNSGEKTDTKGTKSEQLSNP
Chain of CYP1A2 (P05177 whole entry): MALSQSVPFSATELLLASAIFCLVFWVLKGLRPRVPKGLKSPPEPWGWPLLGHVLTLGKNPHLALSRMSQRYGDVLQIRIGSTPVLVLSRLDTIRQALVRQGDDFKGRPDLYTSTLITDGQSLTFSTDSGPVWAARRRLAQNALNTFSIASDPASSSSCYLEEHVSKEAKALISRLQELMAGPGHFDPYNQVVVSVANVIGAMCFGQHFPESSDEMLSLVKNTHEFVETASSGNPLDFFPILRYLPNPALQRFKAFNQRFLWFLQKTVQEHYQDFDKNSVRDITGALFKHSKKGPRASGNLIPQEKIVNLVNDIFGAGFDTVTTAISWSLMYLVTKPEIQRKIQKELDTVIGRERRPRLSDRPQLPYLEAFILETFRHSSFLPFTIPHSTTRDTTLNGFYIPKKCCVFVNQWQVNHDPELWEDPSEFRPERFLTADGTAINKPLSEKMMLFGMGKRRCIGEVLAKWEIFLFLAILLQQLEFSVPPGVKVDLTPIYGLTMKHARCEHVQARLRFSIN

COc1nc(-c2ccc(NC(=O)Nc3ccc(C(=O)NCCCCCC(=O)Nc4ccccc4N)cc3)cc2)nc(N2CCOCC2)n1
inhibition at 10 µM (CYP1A2): 2.52%
inhibition at 10 µM (CYP2C19): 14%
IC50 (Histone deacetylase 1): 0.306 µM
IC50 (Histone deacetylase 2): 0.443 µM
IC50 (Histone deacetylase 3): 0.0245 µM
IC50 (Histone deacetylase 5): > 10 µM
IC50 [1]: > 10 µM
IC50 (Histone deacetylase 8): > 10 µM
IC50 [2]: > 10 µM
IC50 (Histone deacetylase 11): > 10 µM
IC50 [3]: 0.0954 µM
IC50 (MM1.S): 2.9 µM
IC50 (MDA-MB-231): 1.5 µM
IC50 at 48 h [4]: > 100 µM
Ratio IC50 (JeKo-1 [5]): 2
inhibition at 10 µM (CYP2C9): 37.4%
inhibition at 10 µM (CYP2D6): 48.8%
remaining at 0 min [6]: 100%
remaining at 0.5 h [7]: 46.9%
remaining at 0.5 h [8]: 46.9%
remaining at 0.75 h [9]: 40.2%
remaining at 0 min [10]: 100%
remaining at 0.5 h [11]: 45%
half-life [12]: 10 h
AUC(0-t) at 24 h [13]: 2700 ng·h/mL
AUC(0-inf) [14]: 2770 ng·h/mL
Vdss [15]: 0.719 L/kg
Activity (JeKo-1 [16]): 17.8%
Activity (JeKo-1 [17]): 26.1%
Activity (JeKo-1 [18]): 0.17%
inhibition (JeKo-1 [19]): Dose-Dependent Effect
Activity (JeKo-1 [20]): inactive
